Experimental data reported in patent publication US6506800B2, “1,4 diaryl-2,3-difluoro-2-butene insecticidal and acaricidal agents” (BASF Aktiengesellschaft, priority 2000, dated 2003).

How the values were obtained:
Format in all cases: in vivo
[1] = test system: Spodoptera eridania, 3rd instar larvae, southern armyworm (SAW); experiment: Southern armyworm (SAW) leaf-dip test; details: lima bean leaf dip, after 5 days, kill rating 0-9
Experimental: (§1) Test solutions are prepared by dissolving the test compound in a 35% acetone in water mixture to give a concentration of 10000 ppm. Subsequent dilutions are made with water as needed.
Spodoptera eridania, 3rd instar larvae, southern armyworm (SAW)
A Sieva lima bean leaf expanded to 7-8 cm in length is dipped in the test solution with agitation for 3 seconds and allowed to dry in a hood. The leaf is then placed in a 100×10 mm petri dish containing a damp filter paper on the bottom and ten 3rd instar caterpillars. After 5 days, observations are made of mortality, reduced feeding, or any interference with normal molting.

[2] = test system: Diabrotica virgifera virgifera Leconte, 3rd instar western corn rootworm (WCR); experiment: Western corn rootworm (WCR) soil test; details: 1.25 mg active ingredient per jar in soil (approx. 50 kg/ha), 5 days, kill rating 0-9
Experimental: Diabrotica virgifera virgifera Leconte, 3rd instar western corn rootworm (WCR) One ccm of fine talc is placed in a 30 ml wide-mouth screw-top glass jar. One ml of the appropriate acetone test solution is pipetted onto the talc so as to provide 1.25 mg of active ingredient per jar. The jars are set under a gentle air flow until the acetone is evaporated. The dried talc is loosened, 1 ccm of millet seed is added to serve as food for the insects and 25 ml of moist soil is added to each jar. The jar is capped and the contents thoroughly mixed mechanically. Following this, ten 3rd instar rootworms are added to each jar and the jars are loosely capped to allow air exchange for the larvae. The treatments are held for 5 days when mortality counts are made. Missing larvae are presumed dead, since they decompose rapidly and cannot be found. The concentrations of active ingredient used in this test correspond approximately to 50 kg/ha.

[3] = test system: Aphis fabae, mixed instar, bean aphid (BA); experiment: Bean aphid (BA) spray test on nasturtium; design: key: 0 = no effect; 1 = 10-25% kill; 2 = 26-35% kill; 3 = 36-45% kill; 4 = 46-55% kill; 5 = 56-65% kill; 6 = 66-75% kill; 7 = 76-85% kill; 8 = 86-99% kill; 9 = 100% kill; details: spray on infested nasturtium plants, 2 days, kill rating 0-9
Experimental: Test solutions are prepared by dissolving the test compound in a 35% acetone in water mixture to give a concentration of 10000 ppm. Subsequent dilutions are made with water as needed. Aphis fabae, mixed instar, bean aphid (BA) Pots containing single nasturtium plants (Tropaeolum sp.) about 5 cm tall are infested with about 100-200 aphids one day before the test. Each pot is sprayed with the test solution for 2 revolutions of a 4 rounds per minute (rpm) turntable in a hood. The spray is directed to give complete coverage of the plants and aphids. The sprayed pots are set on their sides on white trays and held for 2 days, following which mortality estimates are made.

[4] = test system: Heliothis virenscens, 3rd instar tobacco budworm (TBW); experiment: Tobacco budworm (TBW) cotton cotyledon dip test; design: key: 0 = no effect; 1 = 10-25% kill; 2 = 26-35% kill; 3 = 36-45% kill; 4 = 46-55% kill; 5 = 56-65% kill; 6 = 66-75% kill; 7 = 76-85% kill; 8 = 86-99% kill; 9 = 100% kill; details: 3 days, kill rating 0-9
Experimental: as §1
Heliothis virenscens, 3rd instar tobacco budworm (TBW)
Cotton cotyledons are dipped in the test solution and allowed to dry in a hood. When dry, each is cut into quarters and ten sections are placed individually in 30 ml plastic medicine cups containing a 5 to 7 mm long piece of damp dental wick. One 3rd instar caterpillar is added to each cup and a cardboard lid placed on the cup. Treatments are maintained for 3 days before mortality counts and estimates of reduction in feeding damage are made.

[5] = test system: Tetranychus urticae (OP-resistant strain), 2-spotted spider mite (TSM); experiment: 2-spotted spider mite (TSM) plant dip test; design: key: 0 = no effect; 1 = 10-25% kill; 2 = 26-35% kill; 3 = 36-45% kill; 4 = 46-55% kill; 5 = 56-65% kill; 6 = 66-75% kill; 7 = 76-85% kill; 8 = 86-99% kill; 9 = 100% kill; details: dip of infested lima bean plants, 2 days, kill rating 0-9
Experimental: as §1
Tetranychus urticae (OP-resistant strain), 2-spotted spider mite (TSM)
Sieva lima bean plants with primary leaves expanded to 7-8 cm are selected and cut back to one plant per pot. A small piece is cut from an infested leaf taken from the main colony and placed on each leaf of the test plants. This is done about 2 hours before treatment to allow the mites to move over to the test plant to lay eggs. By the size of the cut, infested leaf is varied to obtain about 100 mites per leaf. At the time of test treatment, the piece of leaf used to transfer the mites is removed and discarded. The newly-infested plants are dipped in the test solution for 3 seconds with agitation and set in the hood to dry. After 2 days, one leaf is removed and mortality counts are made.

Structure (SMILES) | SAW (100 ppm) rating [1] | WCR (50 ppm) rating [2] | BA (100 ppm) rating [3] | TBW (100 ppm) rating [4] | TSM (100 ppm) rating [5]
COCCC(/C(F)=C(\F)Cc1cccc(Oc2ccccc2)c1)c1ccc(Cl)cc1 (centres unmarked) [Compound 1, 1-[(2E)-4-(4-chlorophenyl)-2,3-difluoro-6-methoxy-2-hexenyl]-3-phenoxybenzene] | 9 (9 = 100% kill) | 8 (8 = 86-99% kill) | 2 (2 = 26-35% kill) | 0 | 0
C=CCC(/C(F)=C(\F)Cc1cccc(Oc2ccccc2)c1)c1ccc(Cl)cc1 (centres unmarked) [Compound 2, 1[(2E)-4-(4-chlorophenyl)-2,3-difluoro-2,6-heptadienyl]-3-phenoxybenzene] | 9 (9 = 100% kill) | 9 (9 = 100% kill) | 9 (9 = 100% kill) | 9 (9 = 100% kill) | 0
C=CC(/C(F)=C(\F)Cc1cccc(Oc2ccccc2)c1)c1ccc(Cl)cc1 (centres unmarked) [Compound 3, 1-[(2E)-4-(4-chlorophenyl)-2,3-difluoro-2,5-hexadienyl]-3-phenoxybenzene] | 9 (9 = 100% kill) | 9 (9 = 100% kill) | 9 (9 = 100% kill) | 9 (9 = 100% kill) | 0
COCCC(/C(F)=C(\F)Cc1ccc(F)c(Oc2ccccc2)c1)c1ccc(Cl)cc1 (centres unmarked) [Compound 4, 4-[(2E)-4-(4-chlorophenyl)-2,3-difluoro-6-methoxy-2-hexenyl]-1-fluoro-2-phenoxybenzene] | 9 (9 = 100% kill) | 9 (9 = 100% kill) | 0 | 9 (9 = 100% kill) | 0
